One may read the IC50 as the concentration needed to halve the response being measured.

Among the data in patent publication US11925629B2, “Heterocyclic inhibitors of ERK1 and ERK2 and their use in the treatment of cancer” (Asana Biosciences, LLC, priority 2015, dated 2024) are IC50 values, retold here.

Each structure is given as a SMILES string. Read-outs that look alike come from different tables or passages of the source.

Type in all cases: cell-based, human
Assay [1] relates to HCT116 (colorectal carcinoma, K Ras G13D) cells. Put plainly: Cell proliferation (Alamar Blue) assay, HCT116. The following applies: Homo sapiens, HCT-116, HCT116 cells. In short, it runs like this: (§1)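 5000 cells/well, 16-24 h attach; cpd 0.0005-10 uM (3-fold dilns) x 72 h, 37° C./5% CO2; Alamar Blue 1× 1-3 h; fluor 540/590 nm; IC50, variable-slope sigmoid.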
Background: Resazurin is reduced to fluorescent resorufin, in cell work by metabolically active cells.

Assay [2] has as its system phosphorylation of RSK1(S380) (the downstream target of ERK1/2). The assay is described as follows: Phospho-RSK1(S380) ELISA assay in HT-29 cells. The following applies: phospho-RSK1(S380), read-out: Mechanistic Cell Assay RSK1 Phos HT29 IC50. In short, it runs like this: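 HT-29 colorectal carcinoma cells (B-RafV600E), plated overnight at 37° C./5% CO2, were treated with compound dilutions for 2 h. Lysates were analysed by phospho-RSK1(Ser380) sandwich ELISA with absorbance at 450 nm. IC50 came from a sigmoidal variable-slope dose-response fit.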
For orientation: An ELISA detects its analyte on a solid surface through an enzyme-linked reagent.

Assay [3] deals with HT-29 (colorectal carcinoma, B-RafV600E) cells. The assay is described as follows: Cell proliferation (Alamar Blue) assay, HT-29. In short, it runs like this: as §1
Setting [4] is: Homo sapiens, HT-29, HT29 cells.

As for `Cc1cnc(Nc2ccccc2)cc1-n1cnc(C(=O)NC(CO)c2cccc(Cl)c2)c1` (stereo not drawn) [Example 180, N-(1-(3-chlorophenyl)-2-hydroxyethyl)-1-(5-methyl-2-(phenylamino)pyridin-4-yl)-1H-imidazole-4-carboxamide], the IC50 in assay [1] is more than 2.5 µM; in assay [2] (setting [4]) it was 0.25 to 0.5 µM; in assay [3] (setting [4]) it was 0.5 to 2.5 µM.
For `CC[C@@H](CO)Nc1cc(-n2ccc(C(=O)NC(CO)c3cccc(Cl)c3)c2)ccn1` (stereo partly drawn) [Example 109, N-(1-(3-chloro-phenyl)-2-hydroxy-ethyl)-1-(2-(((S)-1-hydroxy-butan-2-yl)amino)pyridin-4-yl)-1H-pyrrole-3-carboxamide], the IC50 in assay [1] is more than 2.5 µM; in assay [2] (setting [4]), 0.25 to 0.5 µM; in assay [3] (setting [4]), more than 2.5 µM.
As for `Cc1cnc(NC2CCOC2)nc1-n1ccc(C(=O)N[C@H](CO)c2cccc(Cl)c2)c1` (stereo partly drawn) [Example 151, N-((S)-1-(3-chlorophenyl)-2-hydroxy-ethyl)-1-(5-methyl-2-((tetrahydro-furan-3-yl)amino)pyrimidin-4-yl)-1H-pyrrole-3-carboxamide], the figures for the IC50 in assay [1], in assay [2] (setting [4]) and in assay [3] (setting [4]) were 0.5 to 2.5 µM, 0.1 to 0.25 µM and not above 0.1 µM, respectively.
The corresponding values for `Cc1cnc(Nc2ccc3occc3c2)nc1-n1ccc(C(=O)NC(CO)c2ccccc2)c1` (stereo not drawn) [Example 65, 1-(2-(benzo-furan-5-ylamino)-5-methyl-pyrimidin-4-yl)-N-(2-hydroxy-1-phenylethyl)-1H-pyrrole-3-carboxamide] are 0.1 to 0.25 µM, not above 0.1 µM and 0.1 to 0.25 µM.
For the compound `Cc1cnc(Nc2ccc3c(c2)OCO3)nc1-n1ccc(C(=O)NC(CO)c2cc(Cl)cc(Cl)c2)c1` (stereo not drawn) [Example 58, 1-(2-(benzo[d][1,3]dioxol-5-ylamino)-5-methyl-pyrimidin-4-yl)-N-(1-(3,5-dichloro-phenyl)-2-hydroxy-ethyl)-1H-pyrrole-3-carboxamide], the IC50 in assay [1] is more than 2.5 µM; in assay [2] (setting [4]), 0.5 to 2.5 µM; in assay [3] (setting [4]) it was 0.5 to 2.5 µM.
In the case of `Cc1cnc(Nc2ccc(F)cc2Cl)nc1-n1ccc(C(=O)NC(COC(=O)C(N)CC(C)C)c2ccccc2)c1` (stereo not drawn) [Example 150, 2-(1-(2-((2-chloro-4-fluorophenyl)-amino)-5-methyl-pyrimidin-4-yl)-1H-pyrrole-3-carboxamido)-2-phenylethyl 2-amino-4-methyl-pentanoate], the IC50 is more than 2.5 µM in assay [1], 0.5 to 2.5 µM in assay [2] (setting [4]) and more than 2.5 µM in assay [3] (setting [4]).
Regarding `Cc1cnc(Nc2ccc(F)cc2)nc1-n1cc(C(=O)NC(CO)c2ccccc2)nc1C` (stereo not drawn) [Cmpd 153, 1-(2-((4-fluoro-phenyl)amino)-5-methyl-pyrimidin-4-yl)-N-(2-hydroxy-1-phenylethyl)-2-methyl-1H-imidazole-4-carboxamide], the IC50 in assay [1], in assay [2] (setting [4]) and in assay [3] (setting [4]) was more than 2.5 µM throughout.
For the compound `Cc1cnc(Nc2ccc(F)c(C(=O)N3CCN(C)CC3)c2)nc1-n1ccc(C(=O)NC(CO)c2cccc(Cl)c2)c1` (stereo not drawn) [Example 179, N-(1-(3-chlorophenyl)-2-hydroxyethyl)-1-(2-((4-fluoro-3-(4-methylpiperazine-1-carbonyl)phenyl)amino)-5-methylpyrimidin-4-yl)-1H-pyrrole-3-carboxamide], the IC50 in assay [1], in assay [2] (setting [4]) and in assay [3] (setting [4]) was 0.5 to 2.5 µM each time.
For `Cc1cnc(NC2CCOCC2)nc1-n1cnc(C(=O)N[C@@H](CN)c2cccc(Cl)c2)c1` (single isomer, unassigned) [Compound 225b], the IC50 in assay [1] is 0.5 to 2.5 µM; in assay [2] (setting [4]), 0.1 to 0.25 µM; in assay [3] (setting [4]) it was not above 0.1 µM.
For the compound `Cc1cnc(NC2CCCOC2)nc1-n1ccc(C(=O)N[C@H](CO)c2cccc(Cl)c2)c1` (stereo partly drawn) [Example 152, N-((S)-1-(3-chlorophenyl)-2-hydroxy-ethyl)-1-(5-methyl-2-((tetrahydro-2H-pyran-3-yl)amino)pyrimidin-4-yl)-1H-pyrrole-3-carboxamide], the IC50 in assay [1] is 0.5 to 2.5 µM; in assay [2] (HT29 cells) it was 0.1 to 0.25 µM; in assay [3] (HT29 cells) it was 0.1 to 0.25 µM.
`COc1cc(C(=O)N2CCOCC2)c(F)cc1Nc1ncc(C)c(-n2ccc(C(=O)NC(CO)c3cccc(Cl)c3)c2)n1` (stereo not drawn) [Example 181, N-(1-(3-chlorophenyl)-2-hydroxyethyl)-1-(2-((5-fluoro-2-methoxy-4-(morpholine-4-carbonyl)phenyl)amino)-5-methylpyrimidin-4-yl)-1H-pyrrole-3-carboxamide]: the figures for the IC50 in assay [1], in assay [2] (setting [4]) and in assay [3] (setting [4]) were more than 2.5 µM, 0.5 to 2.5 µM and more than 2.5 µM, respectively.
For `Cc1cnc(Nc2cccc3c2OC(F)(F)O3)nc1-n1ccc(C(=O)NC(CO)c2cccc(Cl)c2)c1` (stereo not drawn) [Example 160, N-(1-(3-chloro-phenyl)-2-hydroxy-ethyl)-1-(2-((2,2-difluoro-benzo[d][1,3]dioxol-4-yl)amino)-5-methyl-pyrimidin-4-yl)-1H-pyrrole-3-carboxamide], the 50% inhibitory concentration (IC50) in assay [1] was more than 2.5 µM; in assay [2] (setting [4]) it was 0.5 to 2.5 µM; in assay [3] (setting [4]) it was more than 2.5 µM.
On to `Cc1cnc(Nc2ccc(C3CCNCC3)c(F)c2)nc1-n1ccc(C(=O)NC(CO)c2cccc(Cl)c2)c1` (stereo not drawn) [Example 216, N-(1-(3-chlorophenyl)-2-hydroxyethyl)-1-(2-((3-fluoro-4-(piperidin-4-yl)phenyl)amino)-5-methylpyrimidin-4-yl)-1H-pyrrole-3-carboxamide], for which the values for the IC50 in assay [1], in assay [2] (setting [4]) and in assay [3] (setting [4]) were 0.5 to 2.5 µM, 0.5 to 2.5 µM and 0.25 to 0.5 µM, respectively.
Regarding `Cc1cnc(Nc2ccc3c(c2)OCO3)nc1-n1ccc(C(=O)NC(CO)c2cccc(Cl)c2F)c1` (stereo not drawn) [Example 70, 1-(2-(benzo[d][1,3]dioxol-5-ylamino)-5-methyl-pyrimidin-4-yl)-N-(1-(3-chloro-2-fluorophenyl)-2-hydroxy-ethyl)-1H-pyrrole-3-carboxamide], the 50% inhibitory concentration (IC50) in assay [1] is 0.5 to 2.5 µM; in assay [2] (setting [4]) it was 0.25 to 0.5 µM; in assay [3] (setting [4]), more than 2.5 µM.
In the same order, the values of `Cc1cnc(NC2CCOCC2)nc1-n1cnc(C(=O)NCc2cccc(Cl)c2CN)c1` [Example 285, N-(2-(aminomethyl)-3-chlorobenzyl)-1-(5-methyl-2-((tetrahydro-2H-pyran-4-yl)amino)pyrimidin-4-yl)-1H-imidazole-4-carboxamide] are 0.1 to 0.25 µM, not above 0.1 µM and not above 0.1 µM.
As to `CC[C@@H](CO)Nc1ncc(C)c(-n2ccc(C(=O)NC(CO)c3ccccc3)c2)n1` (stereo partly drawn) [Example 75, N-(2-hydroxy-1-phenylethyl)-1-(2-(((S)-1-hydroxy-butan-2-yl)amino)-5-methyl-pyrimidin-4-yl)-1H-pyrrole-3-carboxamide], the IC50 in assay [1] was more than 2.5 µM; in assay [2] (setting [4]), 0.5 to 2.5 µM; in assay [3] (setting [4]), 0.5 to 2.5 µM.
For the compound `Cc1cnc(NC2CCOCC2)nc1-n1cnc(C(=O)N[C@H](CN)c2cccc(Cl)c2)c1` [Cmpd 225a], the IC50 in assay [1], in assay [2] (setting [4]) and in assay [3] (setting [4]) was not above 0.1 µM throughout.
For `Cc1cnc(Nc2ccccc2)cc1-n1ccc(C(=O)NC(CO)c2ccccc2)c1` (stereo not drawn) [Cmpd 74, N-(2-hydroxy-1-phenylethyl)-1-(5-methyl-2-(phenyl-amino)pyridin-4-yl)-1H-pyrrole-3-carboxamide], the 50% inhibitory concentration (IC50) in assay [1] is more than 2.5 µM; in assay [2] (setting [4]), 0.5 to 2.5 µM; in assay [3] (setting [4]) it was 0.5 to 2.5 µM.
`Cc1cnc(NC2CCOC2)nc1-n1ccc(C(=O)NC(CO)c2cccc(Cl)c2)c1` (stereo not drawn) [Example 123, N-(1-(3-chlorophenyl)-2-hydroxy-ethyl)-1-(5-methyl-2-((tetrahydro-furan-3-yl)amino)pyrimidin-4-yl)-1H-pyrrole-3-carboxamide]: the IC50 was in the range of 0.5 to 2.5 µM in assay [1], 0.1 to 0.25 µM in assay [2] (setting [4]) and 0.25 to 0.5 µM in assay [3] (setting [4]).
For `Cc1cnc(Nc2ccc3c(c2)OC(F)(F)O3)cc1-n1ccc(C(=O)NC(CO)c2ccccc2)c1` (stereo not drawn) [Example 80, 1-(2-((2,2-difluorobenzo [d][1,3]dioxol-5-yl)-amino)-5-methyl-pyridin-4-yl)-N-(2-hydroxy-1-phenyl-ethyl)-1H-pyrrole-3-carboxamide], the IC50 in assay [1], in assay [2] (setting [4]) and in assay [3] (setting [4]) was more than 2.5 µM in each case.
As for `Cc1cnc(Nc2ccc3c(c2)OC(F)(F)O3)nc1-n1ccc(C(=O)N[C@H](CO)c2ccc(F)c(Cl)c2)c1` [Example 69, (S)-N-(1-(3-chloro-4-fluoro-phenyl)-2-hydroxy-ethyl)-1-(2-((2,2-difluoro-benzo[d][1,3]dioxol-5-yl)amino)-5-methyl-pyrimidin-4-yl)-1H-pyrrole-3-carboxamide], the IC50 in assay [1], in assay [2] (setting [4]) and in assay [3] (setting [4]) was 0.5 to 2.5 µM each time.
On to `Cc1cnc(NCC2CCCO2)nc1-n1ccc(C(=O)N[C@H](CO)c2cccc(Cl)c2)c1` (stereo partly drawn) [Example 190, N-((S)-1-(3-chlorophenyl)-2-hydroxyethyl)-1-(5-methyl-2-(((tetrahydrofuran-2-yl)methyl)amino)pyrimidin-4-yl)-1H-pyrrole-3-carboxamide], for which the IC50 is more than 2.5 µM in assay [1], 0.25 to 0.5 µM in assay [2] (setting [4]) and more than 2.5 µM in assay [3] (setting [4]).
As to `Cc1cnc(Nc2ccc(F)cc2Cl)nc1-n1ccc(C(=O)NC(CO)c2cccc(Cl)c2)c1` (stereo not drawn) [Example 31, 1-(2-((2-chloro-4-fluorophenyl)amino)-5-methyl-pyrimidin-4-yl)-N-(1-(3-chlorophenyl)-2-hydroxy-ethyl)-1H-pyrrole-3-carboxamide], the IC50 in assay [1] is 0.5 to 2.5 µM; in assay [2] (setting [4]), 0.5 to 2.5 µM; in assay [3] (setting [4]) it was 0.25 to 0.5 µM.
